# “And” between values parts separate entries of the source, which are not always exact repeats. Equal entries are not always repeated.
# How the values were obtained:
# ChtA^CR Y178H = assay: ITC of hemin binding to ChtA^CR Y178H; set-up: species or system Corynebacterium diphtheriae; conditions: 25 °C, average of three replicates
# Text: (§1) Protein samples were equilibrated in titration buffer supplemented with 5% (v/v) DMSO. […] Binding isotherms were fit to a one-site binding model using the program ORIGIN ([91]).
# ChtA^CR K177G = assay: ITC of hemin binding to ChtA^CR K177G; set-up: species or system Corynebacterium diphtheriae; conditions: 25 °C, average of three replicates
# Text: as §1
# ChtA^CR K177G + Y178H = assay: ITC of hemin binding to ChtA^CR K177G + Y178H; set-up: species or system Corynebacterium diphtheriae; conditions: 25 °C, average of three replicates
# Text: as §1
# ChtA^CR Y178A = assay: ITC of hemin binding to ChtA^CR Y178A; set-up: species or system Corynebacterium diphtheriae
# Text: as §1
# ChtA^CR Y129A = assay: ITC of hemin binding to ChtA^CR Y129A; set-up: species or system Corynebacterium diphtheriae
# Text: as §1
# [1] = biological target: HtaA^CR1 (residues S37-G214); assay: Estimated hemin KD from native ESI-MS partitioning; assay type: binding, Corynebacterium diphtheriae; conditions: read-out: estimated KD for hemin, from nESI-MS Krel using ITC value of ChtA^CR as reference
# Text: (§2) The C. diphtheriae hemin-uptake system contains six CR domains that are located at distinct sites outside the cell (Fig. 1). […] Together, they represent nearly the full complement of C. diphtheriae’s CR domains (only the domains from ChtB and ChtC are missing, but they are expected to have similar binding properties as their paralogs, HtaB and ChtA, respectively). […] Similar measurements were made for the following protein pairs: HtaA^CR2/HtaB^CR, HtaA^CR1/HtaB^CR, HtaA^CR2/HtaA^CR1, ChtA^CR/HtaA^CR2, and ChtA^CR/HtaB^CR (Table S4).
# (§3) nESI-MS was used for ligand (heme)-competition experiments between CR domain pairs to determine their relative heme dissociation constant Krelative (Krel) ([37], [56]). In this approach, two different CR domains (e.g. a >90% heme-loaded “heme donor” and a <10% heme-loaded “heme acceptor” CR domain) are mixed and allowed to come to equilibrium (>6 h, 24 °C). The resulting mixture is then analyzed by nESI-MS, where the apo- and holo-abundance of each CR domain is determined from the sum peak intensity from each of their charge states as described previously ([37]). The relative affinity between the CR pair tested can be determined by their nESI-MS abundances according to Equation 1, which is derived from the ratio of each CR’s KD for heme. Importantly, this analysis is independent of [heme] and Krel should be consistent across different concentrations of [heme donor] and [heme acceptor]; thus, we used at least three different holo-donor and apo-acceptor stoichiometry ratios to determine each Krel reported in Table S4.(eq. 1) KRelative=[CR^hemeacceptor][CR^hemedonor·heme]/[CR^hemedonor][CR^hemeacceptor·heme]=Ab(CR^hemeacceptor)Ab(CR^hemedonor·heme)/Ab(CR^hemedonor)Ab(CR^hemeacceptor·heme)
# (§4) For nESI-MS heme-competition experiments, CR domains were first buffer-exchanged into 50 mM ammonium acetate (pH 6.9) using dialysis or gel filtration and protein concentration was determined by bicinchoninic acid assay or UV-visible absorbance at 280 nm. […]
# [2] = biological target: HtaA^CR2 (residues G344-G506); assay: Estimated hemin KD from native ESI-MS partitioning; assay type: binding, Corynebacterium diphtheriae; conditions: read-out: estimated KD for hemin, from nESI-MS Krel using ITC value of ChtA^CR as reference
# Text: as §2, §3, §4
# [3] = biological target: HtaB^CR (HtaB, residues of 30–273); assay: Estimated hemin KD from native ESI-MS partitioning; assay type: binding, Corynebacterium diphtheriae; conditions: read-out: estimated KD for hemin, from nESI-MS Krel using ITC value of ChtA^CR as reference
# Text: as §2, §3, §4
# [4] = test system: CR domains within C. diphtheriae’s hemin-uptake system; assay: Hemin affinity across the cohort of CR domains (ITC and native MS partitioning); assay type: binding, Corynebacterium diphtheriae; conditions: across ChtA^CR, HtaB^CR, HtaA^CR1, HtaA^CR2
# Text: as §2
# nESI-MS was used for ligand (heme)-competition experiments between CR domain pairs to determine their relative heme dissociation constant Krelative (Krel) ([37], [56]). […] The resulting mixture is then analyzed by nESI-MS, where the apo- and holo-abundance of each CR domain is determined from the sum peak intensity from each of their charge states as described previously ([37]). The relative affinity between the CR pair tested can be determined by their nESI-MS abundances according to Equation 1, which is derived from the ratio of each CR’s KD for heme. […]
# as §4
# [5] = test system: HtaA^CR2 (donor) / ChtA^CR (acceptor); assay: Native ESI-MS hemin partitioning HtaA^CR2 → ChtA^CR; assay type: binding, Corynebacterium diphtheriae
# Description: as §3
# (§5) For nESI-MS heme-competition experiments, CR domains were first buffer-exchanged into 50 mM ammonium acetate (pH 6.9) using dialysis or gel filtration and protein concentration was determined by bicinchoninic acid assay or UV-visible absorbance at 280 nm. Proteins were then mixed at donor:acceptor ratios ranging from 1:9 to 9:1 (but most often 1:3, 1:1, and 3:1), and incubated for at least 6 h at 24 °C. Equilibrated mixtures were then loaded into platinum-coated borosilicate emitter tips with an inner diameter of 200 to 500 nm pulled on a Sutter P-1000 Micropipette Puller and sprayed on a Q-Exactive UHMR Hybrid Quadrupole-Orbitrap Mass Spectrometer (Thermo Fisher Scientific).
# (§6) Table of all CR pairs and stoichiometric ratios tested during the native ESI-MS heme equilibrium partitioning experiments. Apo or holo CR domains were mixed at various ratios (most commonly 1:3, 1:1, and 3:1, corresponding to 5:15 µM, 10:10 µM, or 15:5 µM, respectively).
# [6] = test system: HtaA^CR2 (donor) / HtaB^CR (acceptor); assay: Native ESI-MS hemin partitioning HtaA^CR2 → HtaB^CR; assay type: binding, Corynebacterium diphtheriae
# Description: as §3, §5, §6
# [7] = test system: HtaA^CR1 (donor) / HtaB^CR (acceptor); assay: Native ESI-MS hemin partitioning HtaA^CR1 → HtaB^CR; assay type: binding, Corynebacterium diphtheriae
# Description: as §3, §5, §6
# [8] = test system: HtaB^CR (donor) / HtaA^CR2 (acceptor); assay: Native ESI-MS hemin partitioning HtaB^CR → HtaA^CR2; assay type: binding, Corynebacterium diphtheriae
# Description: as §3, §5, §6
# HtaA^CR1 / HtaA^CR2 = assay: Native ESI-MS hemin partitioning HtaA^CR1 → HtaA^CR2; assay type: binding, Corynebacterium diphtheriae; conditions: transfer HtaA^CR1 → HtaA^CR2 (donor HtaA^CR2, acceptor HtaA^CR1)
# Description: as §3, §5, §6
# metHb = biological target: T1, metHb (Homo sapiens, UniProt P68871+P69905); assay: Hemin release kinetics from metHb (A405 plate reader assay with apo-acceptor); assay type: binding; conditions: 5 µM metHb, brackets 95% confidence interval; for kfast / kslow: 25 °C
# T1 construct: blood-purified HbA in the carbonmonoxy form; from tissue; host or cells: blood
# Description: Holo-metHb was injected to a final concentration of 5 μM on the heme basis in triplicate with 50 μM of the respective apo protein in a 384-well plate. The absorbance at 405 nm was measured every 2.5 min for 20 h in a SpectraMax iD3 plate reader (Molecular Devices). Experiments were performed at 25 °C to avoid apo-globin aggregation. Resulting curves were fit to a two-phase exponential decay equation in GraphPad Prism version 9.5.0 (GraphPad Software).
# Bracketed values represent the 95% confidence interval for the fitted parameter values.
# IsdH NEAT domain = biological target: IsdH NEAT domain; set-up: method as in PMID 23649633, PMID 24245481; conditions: ITC, ref [57], [58]; cited from earlier work
# IsdA NEAT domain = biological target: IsdA NEAT domain; set-up: method as in PMID 23649633, PMID 24245481; conditions: ITC, ref [57], [58]; cited from earlier work
# [9] = apo-acceptor Myoglobin^H64Y/V68F 50 µM
# T1 sequence (P69905 2-142 limits assumed): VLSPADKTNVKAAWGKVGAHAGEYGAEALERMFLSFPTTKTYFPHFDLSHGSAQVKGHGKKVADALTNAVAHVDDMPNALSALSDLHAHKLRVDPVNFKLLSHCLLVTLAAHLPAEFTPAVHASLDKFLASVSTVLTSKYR
# T1 sequence (P68871 2-147 limits assumed): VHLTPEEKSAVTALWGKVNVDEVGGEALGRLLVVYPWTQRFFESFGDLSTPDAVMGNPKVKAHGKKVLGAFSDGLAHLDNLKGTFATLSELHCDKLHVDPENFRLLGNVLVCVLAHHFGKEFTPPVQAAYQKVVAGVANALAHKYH
substance,measurement,setting,value
hemin,Kd,ChtA^CR Y178H,0.0548 ± 0.0019 µM
same,Kd,ChtA^CR K177G,0.0236 ± 0.0008 µM
same,Kd,ChtA^CR K177G + Y178H,0.0271 ± 0.009 µM
same,reduction of affinity,ChtA^CR Y178A; ChtA^CR Y178A versus WT,~2 fold
same,Kd,"ChtA^CR Y178A; ChtA^CR Y178A, 25 °C, average of three replicates",0.0466 ± 0.0096 µM
same,decrease in binding affinity,ChtA^CR Y129A; ChtA^CR Y129A versus WT,> 25 fold
same,Kd,"ChtA^CR Y129A; ChtA^CR Y129A, 25 °C, average of three replicates",> 0.5 µM
same,Kd,[1],0.0011 ± 0.0003 µM
same,Kd,[2],0.00085 ± 0.00015 µM
same,Kd,[3],0.0054 ± 0.001 µM
same,variation in binding strength,[4],~25 fold
same,Krel inverse,[5]; AVERAGE,24.96 ± 8.87
same,Krel (donor/acceptor),[5]; ratio 1:1,0.05
same,Krel inverse,[5]; ratio 1:1,18.29
same,Krel (donor/acceptor),[5]; ratio 1:3,0.05
same,Krel inverse,[5]; ratio 1:3,19.27
same,Krel (donor/acceptor),[5]; ratio 2:1,0.03 and 0.06
same,Krel inverse,[5]; ratio 3:1,32.96
same,Krel (donor/acceptor),[5]; ratio (donor:acceptor) 3:1,0.03
same,Krel (donor/acceptor),[6]; AVERAGE,4.93 ± 0.88
same,Krel inverse,[6]; AVERAGE,0.21 ± 0.04
same,Krel (donor/acceptor),[6]; ratio 1:1,3.92
same,Krel inverse,[6]; ratio 1:1,0.26
same,Krel (donor/acceptor),[6]; ratio 1:3,5.31
same,Krel inverse,[6]; ratio 1:3,0.19
same,Krel (donor/acceptor),[6]; ratio 3:1,5.56
same,Krel inverse,[6]; ratio 3:1,0.18
same,Krel (donor/acceptor),[7]; AVERAGE,5.75 ± 1.4
same,Krel inverse,[7]; AVERAGE,0.18 ± 0.05
same,Krel (donor/acceptor),[7]; ratio 1:1,7.51 and 4.09 and 6.88
same,Krel inverse,[7]; ratio 1:1,0.13 and 0.24 and 0.15
same,Krel (donor/acceptor),[7]; ratio 1:3,4.46 and 4.42
same,Krel inverse,[7]; ratio 1:3,0.22 and 0.23
same,Krel (donor/acceptor),[7]; ratio 3:1,6.16 and 6.76
same,Krel inverse,[7]; ratio 3:1,0.16 and 0.15
same,Krel (donor/acceptor),"[8]; acceptor HtaA^CR2, AVERAGE",0.18 ± 0.01
same,Krel inverse,"[8]; acceptor HtaA^CR2, AVERAGE",5.66 ± 0.33
same,Krel (donor/acceptor),"[8]; acceptor HtaA^CR2, ratio 1:1",0.17
same,Krel inverse,"[8]; acceptor HtaA^CR2, ratio 1:1",5.8
same,Krel (donor/acceptor),"[8]; acceptor HtaA^CR2, ratio 1:3",0.17
same,Krel inverse,"[8]; acceptor HtaA^CR2, ratio 1:3",5.9
same,Krel (donor/acceptor),"[8]; acceptor HtaA^CR2, ratio 3:1",0.19
same,Krel inverse,"[8]; acceptor HtaA^CR2, ratio 3:1",5.28
same,Krel (donor/acceptor),HtaA^CR1 / HtaA^CR2; AVERAGE,0.84 ± 0.12
same,Krel inverse,HtaA^CR1 / HtaA^CR2; AVERAGE,1.2 ± 0.15
same,Krel (donor/acceptor),HtaA^CR1 / HtaA^CR2; ratio 1:1,0.78
same,Krel inverse,HtaA^CR1 / HtaA^CR2; ratio 1:1,1.28
same,Krel (donor/acceptor),HtaA^CR1 / HtaA^CR2; ratio 1:3,0.98
same,Krel inverse,HtaA^CR1 / HtaA^CR2; ratio 1:3,1.02
same,Krel (donor/acceptor),HtaA^CR1 / HtaA^CR2; ratio 3:1,0.77
same,Krel inverse,HtaA^CR1 / HtaA^CR2; ratio 3:1,1.29
same,kfast,metHb; apo-acceptor ChtA^CR 50 µM,1.78 [1.51 - 2.1] hr^-1
same,kslow,metHb; apo-acceptor ChtA^CR 50 µM,0.18 [0.17 - 0.19] hr^-1
same,%kfast,metHb; apo-acceptor ChtA^CR 50 µM,35.52% [33.1% - 37.9%]
same,kfast,metHb; apo-acceptor HtaA^CR1 50 µM,1.55 [1.13 - 2.15] hr^-1
same,kslow,metHb; apo-acceptor HtaA^CR1 50 µM,0.21 [0.18 - 0.23] hr^-1
same,%kfast,metHb; apo-acceptor HtaA^CR1 50 µM,33.11% [26.9% - 39%]
same,kfast,metHb; apo-acceptor HtaA^CR2 50 µM,2.46 [2.23 - 2.72] hr^-1
same,kslow,metHb; apo-acceptor HtaA^CR2 50 µM,0.21 [0.19 to 0.22] hr^-1
same,%kfast,metHb; apo-acceptor HtaA^CR2 50 µM,41.11% [39.3% - 42.9%]
same,kslow,metHb; [9],0.13 [0.11 - 0.14] hr^-1
same,%kfast,metHb; [9],34.6% [30.8% - 38.3%]
same,Kd,IsdH NEAT domain,0.034 ± 0.008 µM
same,Kd,IsdA NEAT domain,0.014 ± 0.004 µM
